This data set concerns adenocarcinoma of the prostate. The data set can be described thus: Human test results: oral treatment of prostate cancer patients with slow release tablets. Type of data set: in vivo. The following applies: general statement. The procedure: Diseases that can be beneficially influenced by the present dosage form include in particular benign prostate hyperplasy, cancer, leukemias, cystic fibrosis, AIDS, kidney and liver diseases, thalassemia and urea cycle disorders. For example, the treatment of an adenocarcinoma of the prostate can be carried out by administering twice daily, e.g. in the morning and evening, a pharmaceutical tablet formulation containing 250 mg of sodium 4-phenylbutyrate. […] Treatment may be continued for several month or years until a satisfactory effect is observed or the patient is total free of the disease.
Following are descriptions of treatments and test results obtained from human patients.
This patient presented on Apr. […] Because of progressive bone pains they underwent bilateral orchiectomy in February 1996. They became free of pain until November 1998 when they again suffered bone pains mainly in their back. They were than treated orally twice daily with 250 mg of sodium phenylbutyrate retard tablets according to Example 1. Four weeks later they were free of pain.
This patient presented in March 1997 with a pathological fracture of the 8th thoracic vertebra caused by metastatic destruction. The multiple biopsies of the slightly enlarged prostate was positive for adenocarcinoma on both sides. […] On Apr. 10, 1997 they underwent bilateral orchidectomy. […]

Take `O=C([O-])CCCc1ccccc1.[Na+]` [sodium 4-phenylbutyrate]: the “therapeutic effect (pains)” value (adenocarcinoma of the prostate, tablet with 250 mg twice daily, after treatment of about one month) was “pains disappear”. In addition, the side effects result (long period of treatment) is “no side effects”.

The record behind these values is patent US7611729B2, “Dosage forms having prolonged active ingredient release” (Lunamed AG, priority 2001, dated 2009).
